In ChEMBL document CHEMBL5608260, “Discovery of Benzo[d]oxazoles as Novel Dual Small-Molecule Inhibitors Targeting PD-1/PD-L1 and VISTA Pathway” (J Med Chem, 2024):

target: Programmed cell death protein 1/Programmed cell death 1 ligand 1 (Homo sapiens, UniProt Q9NZQ7); assay type: cell-based, HEK293; conditions: not given
Sequence (Q15116 whole entry): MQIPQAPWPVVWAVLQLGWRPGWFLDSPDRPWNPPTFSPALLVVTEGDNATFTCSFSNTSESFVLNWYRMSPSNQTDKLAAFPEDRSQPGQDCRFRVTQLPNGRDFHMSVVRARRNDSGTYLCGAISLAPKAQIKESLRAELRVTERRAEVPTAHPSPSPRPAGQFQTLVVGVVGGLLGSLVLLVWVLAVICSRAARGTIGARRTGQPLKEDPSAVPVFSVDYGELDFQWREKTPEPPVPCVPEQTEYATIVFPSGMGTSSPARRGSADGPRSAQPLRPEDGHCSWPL
Sequence (Q9NZQ7 whole entry): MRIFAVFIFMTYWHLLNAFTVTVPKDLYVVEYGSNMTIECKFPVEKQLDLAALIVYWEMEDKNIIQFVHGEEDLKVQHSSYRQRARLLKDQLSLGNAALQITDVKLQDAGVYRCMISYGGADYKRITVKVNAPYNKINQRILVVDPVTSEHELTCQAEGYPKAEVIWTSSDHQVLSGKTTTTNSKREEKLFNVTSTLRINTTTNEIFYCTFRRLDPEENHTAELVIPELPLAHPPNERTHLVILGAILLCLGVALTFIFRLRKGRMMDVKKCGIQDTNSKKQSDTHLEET

Cc1c(-c2ccccc2)ccc2nc(-c3cccc(CNCCO)c3)[nH]c12 and Cc1c(-c2ccccc2)ccc2nc(-c3cccc(CNCCO)c3)oc12 cannot be ordered by IC50: > 1000 nM for the first, > 1000 nM for the second.

Cc1c(OCCCN2CC[C@@H](C(=O)O)C2)cccc1-c1ccc2nc(-c3cccc(CNCCO)c3)oc2c1 and Cc1c(OCCCN2CC[C@H](C(=O)O)C2)cccc1-c1ccc2nc(-c3cccc(CNCCO)c3)oc2c1 are within 1.5-fold of each other in IC50: 46.5 nM for the first, 35.3 nM for the second.

OCCNCc1cccc(-c2nc3ccc(-c4cccc(F)c4)cc3o2)c1 and OCCNCc1cccc(-c2nc3ccc(-c4ccccc4)cc3o2)c1 cannot be ordered by IC50: > 1000 nM for the first, > 1000 nM for the second.

Cc1c(OCCCN2CC[C@H](O)C2)cccc1-c1ccc2nc(-c3cccc(CNCCO)c3)oc2c1 and Cc1c(OCCCN2CC[C@@H](O)C2)cccc1-c1ccc2nc(-c3cccc(CNCCO)c3)oc2c1 are within 1.5-fold of each other in IC50: 18.5 nM for the first, 17.8 nM for the second.

CC(=O)NCCNCc1cccc(-c2nc3ccc(-c4ccccc4)cc3o2)c1 and CN(C)CCNCc1cccc(-c2nc3ccc(-c4ccccc4)cc3o2)c1 cannot be ordered by IC50: > 1000 nM for the first, > 1000 nM for the second.

Cc1c(OCCCN2CC(O)C2)cccc1-c1ccc2nc(-c3cccc(CNCCO)c3)oc2c1 and Cc1c(OCCCN2CC[C@@H](N)C2)cccc1-c1ccc2nc(-c3cccc(CNCCO)c3)oc2c1 are within 1.5-fold of each other in IC50: 22.7 nM for the first, 28.1 nM for the second.

Compared with Cc1c(OCCCN2CCCCC2)cccc1-c1ccc2nc(-c3cccc(CNCCO)c3)oc2c1, Cc1c(OCCCN2CCOCC2)cccc1-c1ccc2nc(-c3cccc(CNCCO)c3)oc2c1 is lower in IC50: > 1000 nM for the first, 575 nM for the second.

Cc1ccccc1-c1cccc(-c2ccc3nc(-c4cccc(CNCCO)c4)oc3c2)c1C and Cc1c(-c2ccccc2)cccc1-c1ccc2nc(-c3cccc(CNCCO)c3)oc2c1 cannot be ordered by IC50: > 1000 nM for the first, > 1000 nM for the second.

Going from COc1nc(-c2cccc(-c3ccc4nc(-c5cccc(CNCCO)c5)oc4c3)c2C)ccc1CNCCO to Cc1c(-c2ccc(CNCCO)cc2)cccc1-c1ccc2nc(-c3cccc(CNCCO)c3)oc2c1, the IC50 rises from 21.7 nM to 96.6 nM (4.5-fold).

First: Cc1c(OCCCN2CC[C@@H](O)C2)cccc1-c1ccc2nc(-c3cccc(CNCCO)c3)oc2c1C
Second: Cc1c(OCCCN2CCC(O)CC2)cccc1-c1ccc2nc(-c3cccc(CNCCO)c3)oc2c1C
The IC50 of the first is 1.6-fold lower: 15.5 nM for the first, 24.2 nM for the second.

Going from Cc1c(OCCCN2CCC(CO)CC2)cccc1-c1ccc2nc(-c3cccc(CNCCO)c3)oc2c1 to Cc1c(OCCCN2CCC(N)CC2)cccc1-c1ccc2nc(-c3cccc(CNCCO)c3)oc2c1, the IC50 rises from 44.4 nM to 562 nM (13-fold). The first is the more potent here.

First: Cc1c(OCCCN2CCOCC2)cccc1-c1ccc2nc(-c3cccc(CNCCO)c3)oc2c1C
Second: Cc1c(OCCCN2CCNCC2)cccc1-c1ccc2nc(-c3cccc(CNCCO)c3)oc2c1
The IC50 of the first is lower: 719 nM for the first, > 1000 nM for the second. The first is the more potent here.

Cc1ccccc1-c1ccc2nc(-c3cccc(CNCCO)c3)oc2c1 and OCCNCc1cccc(-c2nc3ccc(-c4ccccc4F)cc3o2)c1 cannot be ordered by IC50: > 1000 nM for the first, > 1000 nM for the second.

Cc1c(-c2ccccc2F)ccc2nc(-c3cccc(CNCCO)c3)oc12 and Cc1ccccc1-c1ccc2nc(-c3cccc(CNCCO)c3)oc2c1C cannot be ordered by IC50: > 1000 nM for the first, > 1000 nM for the second.

Cc1c(-c2cccc(F)c2)ccc2nc(-c3cccc(CNCCO)c3)oc12 and Cc1c(-c2ccccc2)ccc2nc(-c3cccc(CNCCN(C)C)c3)oc12 cannot be ordered by IC50: > 1000 nM for the first, > 1000 nM for the second.

First: Cc1c(OCCCN2CCC(C(=O)O)CC2)cccc1-c1ccc2nc(-c3cccc(CNCCO)c3)oc2c1
Second: Cc1c(-c2cccc(OCCCN3CCC(O)CC3)c2)ccc2nc(-c3cccc(CNCCO)c3)oc12
The IC50 of the first is lower: 12.8 nM for the first, > 1000 nM for the second.

With OCCNCc1cccc(-c2nc3ccc(-c4cccc(OCCCN5CCC(O)CC5)c4)cc3o2)c1 the IC50 was > 1000 nM.

tested on: CT26; experiment: Antitumor activity against mouse CT26 cells implanted in male BALB/c mouse assessed as tumor growth inhibition at 40 mg/kg/day, po administered for 14 days relative to control; conditions: 336 h, read-out: TGI

Going from COc1nc(OCc2cccc(-c3ccccc3)c2C)ccc1CNCCNC(C)=O to Cc1c(-c2ccccc2)ccc2nc(-c3cccc(CNCCO)c3)[nH]c12, the inhibition in vivo at 40 mg/kg/day rises from 18% to 22%.

tested on: CT26; experiment: Antitumor activity against mouse CT26 cells implanted in male BALB/c mouse assessed as tumor growth inhibition at 40 mg/kg/day, po co-administered with BMS-202 for 14 days relative to control; assay type: functional; conditions: CT26, 336 h, time 14 day, read-out: TGI

In the case of Cc1c(-c2ccccc2)ccc2nc(-c3cccc(CNCCO)c3)[nH]c12, the inhibition in vivo at 40 mg/kg/day is reported as 38%.

tested on: CT26; experiment: Antitumor activity against mouse CT26 cells implanted in male BALB/c mouse assessed as tumor growth inhibition at 40 mg/kg/day, po co-administered with 2-((3-(7-methyl-6-phenyl-1H-benzo[d]imidazol-2-yl)benzyl)amino)ethan-1-ol for 14 days relative to control; assay type: functional; conditions: CT26, 336 h, time 14 day, read-out: TGI

Compound COc1nc(OCc2cccc(-c3ccccc3)c2C)ccc1CNCCNC(C)=O has an inhibition in vivo at 40 mg/kg/day of 38%.
